Results reported in the OPERA property sets (Mansouri et al. 2018).
Converted amounts (≈) assume the structure as drawn.

Settings: not given

Going from `C=C1C[C@]23C[C@@]1(O)CC[C@H]2[C@@]12C=C[C@H](O)[C@@](C)(C(=O)O1)[C@H]2[C@@H]3C(=O)O` to `O=C[C@@H]1C[C@@H]2[C@@H]3[C@H]1[C@@]1(Cl)C(Cl)(Cl)[C@]3(Cl)[C@@]3(Cl)[C@@H]2[C@]31Cl`, the solubility falls from 14.4 mM (≈ 5000 µg/mL) to 6.3e-05 mM (≈ 0.024 µg/mL).

Compared with `Cc1[nH]c(=O)n(C(C)C)c(=O)c1Br`, `O=C(OCCOc1ccc(Cl)cc1Cl)c1ccccc1` is 56-fold lower in solubility: 8.7 mM (≈ 2150 µg/mL) for the first, 0.154 mM (≈ 48 µg/mL) for the second.

Same assay, conditions: 20 °C

Compared with `CC(Cl)(Cl)[N+](=O)[O-]`, `O=CNC(Nc1ccc(Cl)c(Cl)c1)C(Cl)(Cl)Cl` (centres undefined) is 37-fold lower in solubility: 17.4 mM (≈ 2500 µg/mL) for the first, 0.476 mM (≈ 160 µg/mL) for the second.

First: N#C/C(=N\OCC1OCCO1)c1ccccc1
Second: CNC(=O)Oc1ccccc1C1OCCO1
The solubility of the first is 310-fold lower: 0.0861 mM (≈ 20 µg/mL) for the first, 26.9 mM (≈ 6000 µg/mL) for the second.

Compared with `CC(C)OP(=O)(OC(C)C)SCc1ccccc1`, `C#CC(C)N(C(=O)CCl)c1ccccc1` (centres undefined) is 1.6-fold higher in solubility: 1.39 mM (≈ 400 µg/mL) for the first, 2.26 mM (≈ 500 µg/mL) for the second.

Going from `Cc1ccc(NC(=O)N(C)C)cc1Cl` to `CN(C)C(O)=Nc1ccc(-n2nc(C(C)(C)C)oc2=O)c(Cl)c1`, the solubility falls from 0.329 mM (≈ 70 µg/mL) to 0.0472 mM (≈ 16 µg/mL) (7-fold).

First: COP(=S)(OC)Oc1ccc(Sc2ccc(OP(=S)(OC)OC)cc2)cc1
Second: CCOC(=O)NCCOc1ccc(Oc2ccccc2)cc1
The solubility of the first is 34-fold lower: 0.000579 mM (≈ 0.27 µg/mL) for the first, 0.0199 mM (≈ 6 µg/mL) for the second.

Compared with `CN(C(=O)COc1nc2ccccc2s1)c1ccccc1`, `CCOC(=O)Nc1cccc(OC(=O)Nc2ccccc2)c1` is 1.7-fold higher in solubility: 0.0134 mM (≈ 4 µg/mL) for the first, 0.0233 mM (≈ 7 µg/mL) for the second.

Going from `C=CCN(CC=C)C(=O)C(Cl)Cl` to `CNC(=O)N(C)c1nnc(C(F)(F)F)s1`, the solubility falls from 24 mM (≈ 5000 µg/mL) to 8.74 mM (≈ 2100 µg/mL) (2.7-fold).

First: O=[N+]([O-])c1ccc(O/N=C/c2cc(Br)c(O)c(Br)c2)c([N+](=O)[O-])c1
Second: O=C(O)Cc1c[nH]c2ccccc12
The solubility of the first is 39000-fold lower: 0.000217 mM (≈ 0.1 µg/mL) for the first, 8.56 mM (≈ 1500 µg/mL) for the second.

Going from `COP(=S)(OC)SCC(=O)N(c1ccc(Cl)cc1)C(C)C` to `CN(C)C(=O)SCCCCOc1ccccc1`, the solubility rises from 0.037 mM (≈ 13.6 µg/mL) to 0.118 mM (≈ 30 µg/mL) (3.2-fold).

First: O=C1CCc2cccc3c2N1CC3
Second: [Br-].[Br-].c1cc[n+]2c(c1)-c1cccc[n+]1CC2
The solubility of the first is 89-fold lower: 23.1 mM (≈ 4000 µg/mL) for the first, 2060 mM for the second.

Going from `Cc1cc(N(C)C)nc(Cl)n1` to `CCC1COC(Cn2cncn2)(c2ccc(Cl)cc2Cl)O1` (centres undefined), the solubility falls from 54.8 mM (≈ 9400 µg/mL) to 0.244 mM (≈ 80 µg/mL) (220-fold).

Going from `CCSCCSP(=O)(OC)OC` to `CCCOC/C(=N\c1ccc(Cl)cc1C(F)(F)F)n1ccnc1`, the solubility rises from 14.3 mM (≈ 3300 µg/mL) to 36.1 mM (≈ 12500 µg/mL) (2.5-fold).

Compared with `CNC(=S)[S-].[Na+]`, `O=S1(=O)OCC2C(CO1)C1(Cl)C(Cl)=C(Cl)C2(Cl)C1(Cl)Cl` (centres undefined) is far lower in solubility: 5590 mM for the first, 0.00114 mM (≈ 0.48 µg/mL) for the second.

`C1CNCCN1.Cl.Cl` gave a solubility of 2580 mM.

Same assay, conditions: 22 °C

`CCSC(=O)N(CC)C1CCCCC1` showed a solubility of 0.395 mM (≈ 85 µg/mL).

Same assay, conditions: 23 °C

With `COC(=O)C(C)N(C(=O)c1ccccc1)c1ccc(F)c(Cl)c1` (centres undefined) the solubility was 0.0857 mM (≈ 28.8 µg/mL).

Same assay, conditions: 25 °C

First: CN(C)C(=O)Nc1cc(C(C)(C)C)on1
Second: CNC(=O)Oc1c(C(C)(C)C)cc(C)cc1C(C)(C)C
The solubility of the first is 150-fold higher: 3.74 mM (≈ 790 µg/mL) for the first, 0.0252 mM (≈ 7 µg/mL) for the second.

Going from `Cc1ccc(/N=C/N(C)/C=N/c2ccc(C)cc2C)c(C)c1` to `COC(=O)C1(O)c2ccccc2-c2ccc(Cl)cc21` (centres undefined), the solubility rises from 0.00341 mM (≈ 1 µg/mL) to 0.0655 mM (≈ 18 µg/mL) (19-fold).

Going from `CCOC(=O)CN(C(=O)CCl)c1c(CC)cccc1CC` to `CCN(CC)C(=O)CCl`, the solubility rises from 0.337 mM (≈ 105 µg/mL) to 571 mM (≈ 85500 µg/mL) (1700-fold).

Going from `COP(=S)(OC)Oc1ccc([N+](=O)[O-])c(C)c1` to `CNP(=O)(OC)Oc1ccc(C(C)(C)C)cc1Cl` (centres undefined), the solubility rises from 0.137 mM (≈ 38 µg/mL) to 0.686 mM (≈ 200 µg/mL) (5-fold).

First: CC(C)=CCl
Second: Cc1nc(C)c(Cl)c(O)c1Cl
The solubility of the first is 210-fold higher: 11 mM (≈ 1000 µg/mL) for the first, 0.0521 mM (≈ 10 µg/mL) for the second.

Going from `FC(F)(F)c1nc2c(Cl)c(Cl)ccc2[nH]1` to `COC(=O)C(C)Oc1ccc(Oc2ncc(C(F)(F)F)cc2Cl)cc1` (centres undefined), the solubility falls from 0.271 mM (≈ 69 µg/mL) to 0.0248 mM (≈ 9.3 µg/mL) (11-fold).

First: C=C(CC(Cl)(Cl)Cl)c1ccccc1
Second: CC(O)COCc1c(Cl)ccc(Cl)c1Cl (centres undefined)
The solubility of the first is 5.2-fold lower: 0.0522 mM (≈ 12.3 µg/mL) for the first, 0.271 mM (≈ 73 µg/mL) for the second.

Compared with `O=C(O)COc1nc(Cl)c(Cl)cc1Cl`, `O=C(O)c1cc(Cl)c(Cl)cc1Cl` is 2.1-fold higher in solubility: 1.72 mM (≈ 440 µg/mL) for the first, 3.59 mM (≈ 810 µg/mL) for the second.

Going from `O=C(O)COc1cc(Cl)cc(Cl)c1` to `CCCCS/C(=N\c1cccnc1)SCc1ccc(C(C)(C)C)cc1`, the solubility falls from 4.35 mM (≈ 961 µg/mL) to 0.00268 mM (≈ 1 µg/mL) (1600-fold).

Going from `CCCCc1c(C)nc(NCC)nc1OS(=O)(=O)N(C)C` to `CCSC(=O)N(CC)CC`, the solubility rises from 0.0695 mM (≈ 22 µg/mL) to 20.3 mM (≈ 3280 µg/mL) (290-fold).

`CCOP(=S)(OCC)SCSP(=S)(OCC)OCC` showed a solubility of 0.0052 mM (≈ 2 µg/mL).

Same assay, conditions: 26 °C

Compound `CCNc1nc(OC)nc(N(CC)CC)n1` has a solubility of 1 mM (≈ 226 µg/mL).

Same assay, conditions: 30 °C

Going from `CCC(C)N(C(=O)SCc1ccccc1)C(C)CC` (centres undefined) to `CN1C(=O)[C@]23CC4=CC=C[C@H](O)[C@H]4N2C(=O)[C@@]1(CO)SS3`, the solubility rises from 0.00895 mM (≈ 2.5 µg/mL) to 0.214 mM (≈ 70 µg/mL) (24-fold).

Same assay, conditions: pH 3.0; 26 °C

`CCN(CC)c1nc(NC(C)C)nc(OC)n1` gave a solubility of 0.0129 mM (≈ 3.09 µg/mL).

Same assay, conditions: pH 7.0; 25 °C

In the case of `Cn1cc(-c2ccccc2)c(=O)c(-c2cccc(C(F)(F)F)c2)c1`, the solubility is reported as 0.0364 mM (≈ 12 µg/mL).
